Source: patent US10179770B2, “Quinolines derivatives as novel anticancer agents” (GENOSCIENCE PHARMA, priority 2013, dated 2019)

What was measured:
Assay in all cases: NCI-60 screen (SRB)
Assay type in all cases: cell-based
BT-549 = BT-549 (Breast)
Procedure, shortened: (§1)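 RPMI 1640/5% FBS/2 mM Gln; 24 h attach; Tz plates TCA-fixed at dosing; 5 conc. (10-fold or ½-log), 48 h, 37 °C, 5% CO2; SRB, A515; GI50/TGI/LC50 from Tz, C, Ti.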

DU-145 = DU-145 (Prostate)
Procedure, shortened: as §1

HCT-116 = HCT-116 (Colon)
Procedure, shortened: as §1

HOP-62 = HOP-62 (Non-Small Cell Lung)
Procedure, shortened: as §1

K-562 = K-562 (Leukemia)
Procedure, shortened: as §1

MALME-3M = MALME-3M (Melanoma)
Procedure, shortened: as §1

MCF7 = MCF7 (Breast)
Procedure, shortened: as §1

MDA-MB-435 = MDA-MB-435 (Melanoma)
Procedure, shortened: as §1

MOLT-4 = MOLT-4 (Leukemia)
Procedure, shortened: as §1

NCI-H322M = NCI-H322M (Non-Small Cell Lung)
Procedure, shortened: as §1

NCI/ADR-RES = NCI/ADR-RES (Ovarian)
Procedure, shortened: as §1

RXF393 = RXF393 (Renal)
Procedure, shortened: as §1

SF-295 = SF-295 (CNS)
Procedure, shortened: as §1

SK-MEL-2 = SK-MEL-2 (Melanoma)
Procedure, shortened: as §1

SK-OV3 = SK-OV3 (Ovarian)
Procedure, shortened: as §1

SNB-19 = SNB-19 (CNS)
Procedure, shortened: as §1

UO-31 = UO-31 (Renal)
Procedure, shortened: as §1

[1] = Homo sapiens, read-out: LC50 (the source's name)

For `CCN(CC)C1CCN(C(C)c2cc(-c3ccccc3)nc3ccccc23)CC1.Cl.Cl` (stereo not drawn) [XIX-3, 2-phenyl-4-{1-[4-(N,N-diethylamino)piperidin-1-yl]-eth-1-yl}quinoline dihydrochloride], the TGI (BT-549) was 27 µM, the “Growth percent at 10 μM” value (BT-549) was “+ (cell growth 60 > % < 80)” and the GI50 (BT-549; Homo sapiens) was 13 µM. For the same molecule, the CC50 (BT-549; [1]) was 56 µM, the TGI (DU-145) was 28 µM and the “Growth percent at 10 μM” value (DU-145) was “− (cell growth % > 80)”. For the same molecule, the GI50 (DU-145; Homo sapiens) was 14 µM, the CC50 (DU-145; [1]) was 54 µM and the TGI (HCT-116) was 19 µM. For the same molecule, the “Growth percent at 10 μM” value (HCT-116) was “++ (cell growth 40 > % < 60)”, the GI50 (HCT-116; Homo sapiens) was 5 µM and the CC50 (HCT-116; [1]) was 51 µM. For the same molecule, the TGI (HOP-62) was 22 µM, the “Growth percent at 10 μM” value (HOP-62) was “− (cell growth % > 80)” and the GI50 (HOP-62; Homo sapiens) was 9 µM. For the same molecule, the CC50 (HOP-62; [1]) was 52 µM, the GI50 (K-562; Homo sapiens, K562) was 2 µM and the CC50 (K-562; Homo sapiens, K562, read-out: LC50 (the source's name)) was 15 µM. For the same molecule, the TGI (K-562) was 5 µM, the “Growth percent at 10 μM” value (K-562) was “× (cell growth 0 > % > −20)” and the GI50 (MALME-3M; Homo sapiens) was 2 µM. The CC50 (MALME-3M; [1]) was 7 µM, the TGI (MALME-3M) was 4 µM and the “Growth percent at 10 μM” value (MALME-3M) was “×× (cell growth −20 > % < −40)”. The GI50 (MCF7; Homo sapiens) was 8 µM, the LC50 (50% lethal concentration) (MCF7; Homo sapiens) was 56 µM and the TGI (MCF7) was 22 µM. The “Growth percent at 10 μM” value (MCF7) was “++ (cell growth 40 > % < 60)”, the GI50 (MDA-MB-435; Homo sapiens) was 2 µM and the CC50 (MDA-MB-435; [1]) was 14 µM. The TGI (MDA-MB-435) was 5 µM, the “Growth percent at 10 μM” value (MDA-MB-435) was “++++ (cell growth % < 20)” and the GI50 (MOLT-4; Homo sapiens) was 4 µM. For the same molecule, the CC50 (MOLT-4; [1]) was 49 µM, the TGI (MOLT-4) was 15 µM and the “Growth percent at 10 μM” value (MOLT-4) was “++++ (cell growth % < 20)”. The GI50 (NCI-H322M; Homo sapiens) was 11 µM, the CC50 (NCI-H322M; [1]) was 52 µM and the TGI (NCI-H322M) was 24 µM. For the same molecule, the “Growth percent at 10 μM” value (NCI-H322M) was “+ (cell growth 60 > % < 80)”, the GI50 (NCI/ADR-RES; Homo sapiens) was 12 µM and the LC50 (concentration giving 50% net cell kill) (NCI/ADR-RES; Homo sapiens) was 56 µM. For the same molecule, the TGI (NCI/ADR-RES) was 26 µM, the “Growth percent at 10 μM” value (NCI/ADR-RES) was “+ (cell growth 60 > % < 80)” and the GI50 (RXF393; Homo sapiens, RXF 393) was 4 µM. The CC50 (RXF393; Homo sapiens, RXF 393, read-out: LC50 (the source's name)) was 17 µM, the TGI (RXF393) was 17 µM and the GI50 (SF-295; Homo sapiens) was 4 µM. For the same molecule, the CC50 (SF-295; [1]) was 48 µM, the TGI (SF-295) was 15 µM and the “Growth percent at 10 μM” value (SF-295) was “− (cell growth % > 80)”. It also gave a GI50 (SK-MEL-2; Homo sapiens) of 3 µM, a CC50 (SK-MEL-2; [1]) of 27 µM and a TGI (SK-MEL-2) of 7 µM. For the same molecule, the “Growth percent at 10 μM” value (SK-MEL-2) was “++ (cell growth 40 > % < 60)”, the GI50 (SK-OV3; Homo sapiens, SK-OV-3) was 17 µM and the LC50 (concentration killing 50% of cells) (SK-OV3; Homo sapiens, SK-OV-3) was 59 µM. The TGI (SK-OV3) was 31 µM, the “Growth percent at 10 μM” value (SK-OV3) was “− (cell growth % > 80)” and the GI50 (SNB-19; Homo sapiens) was 13 µM. For the same molecule, the CC50 (SNB-19; [1]) was 59 µM, the TGI (SNB-19) was 28 µM and the “Growth percent at 10 μM” value (SNB-19) was “− (cell growth % > 80)”. The GI50 (UO-31; Homo sapiens) was 8 µM, the CC50 (UO-31; [1]) was 22 µM and the TGI (UO-31) was 22 µM. For the same molecule, the “Growth percent at 10 μM” value (UO-31) was “++ (cell growth 40 > % < 60)”.
In the case of `CC(C)(C)NC1CCN(c2cc(-c3ccc(Cl)cc3)nc3ccccc23)CC1.Cl.Cl` [XII-4, 2-(4-chloro-phenyl)-4-(4-N-tert-butylamino-piperidin-1-yl)quinoline dihydrochloride], the “Growth percent at 10 μM” value (BT-549) is reported as “− (cell growth % > 80)”, the “Growth percent at 10 μM” value (DU-145) is reported as “− (cell growth % > 80)” and the “Growth percent at 10 μM” value (HCT-116) is reported as “+++ (cell growth 20 > % < 40)”. The “Growth percent at 10 μM” value (HOP-62) was “+ (cell growth 60 > % < 80)”, the “Growth percent at 10 μM” value (K-562) was “× (cell growth 0 < % > −20)” and the “Growth percent at 10 μM” value (MALME-3M) was “××× (cell growth −40 < % > −60)”. For the same molecule, the “Growth percent at 10 μM” value (MCF7) was “++ (cell growth 40 > % < 60)”, the “Growth percent at 10 μM” value (MDA-MB-435) was “++++ (cell growth 0 > % < 20)” and the “Growth percent at 10 μM” value (MOLT-4) was “++ (cell growth 40 > % < 60)”. The “Growth percent at 10 μM” value (NCI-H322M) was “++ (cell growth 40 > % < 60)”, the “Growth percent at 10 μM” value (NCI/ADR-RES) was “+ (cell growth 60 > % < 80)” and the “Growth percent at 10 μM” value (RXF393; 10 μM) was “+++ (cell growth 20 > % < 40)”. For the same molecule, the “Growth percent at 10 μM” value (SF-295) was “− (cell growth % > 80)”, the “Growth percent at 10 μM” value (SK-MEL-2) was “− (cell growth % > 80)” and the “Growth percent at 10 μM” value (SK-OV3) was “− (cell growth % > 80)”. The “Growth percent at 10 μM” value (SNB-19) was “− (cell growth % > 80)” and the “Growth percent at 10 μM” value (UO-31) was “+++ (cell growth 20 > % < 40)”.
